Structures can show the parent of a compound that is named as a salt.
Row | SMILES | melting point
1 | COc1ccc(N=C(NC(=Nc2ccccc2)N2CCCCCC2)c2c(C)cccc2C)cc1 (as salt: hydrochloride) [Example 68, N-(azepan-1-yl-phenylimino-methyl)-N′-(4-methoxy-phenyl)-2,6-dimethyl-benzamidine] | 228 to 230 °C (dec.)
2 | Cc1ccccc1C(=NC(=Nc1ccccc1)N1CCC(=O)CC1C)Nc1ccc(F)cc1 (stereo not drawn) (as salt: hydrochloride) [Example 69, N-(4-fluoro-phenyl)-2-methyl-N′-[(2-methyl-4-oxo-piperidin-1-yl)-phenylimino-methyl]-benzamidine] | > 143 °C
3 | Cc1cccc(C)c1C(=NC(=Nc1ccccc1)N1CCOCC1)Nc1ccc(F)cc1 (as salt: hydrochloride) [Example 76, N-(4-fluoro-phenyl)-2,6-dimethyl-N′-(morpholin-4-yl-phenylimino-methyl)-benzamidine] | 249 to 251 °C (dec.)
4 | Cc1ccccc1C(=Nc1ccc(F)cc1)NC(=Nc1ccccc1Cl)N1CCCCC1C (stereo not drawn) (as salt: hydrochloride) [Example 79, N-[(2-chloro-phenylimino)-(2-methyl-piperidin-1-yl)-methyl]-N′-(4-fluoro-phenyl)-2-methyl-benzamidine] | 208 to 210 °C
5 | Cc1cccc(C)c1C(=NC(=Nc1ccccc1)N1CCC(O)CC1C)Nc1ccc(F)cc1 (stereo not drawn) (as salt: hydrochloride) [Example 82, N-(4-fluoro-phenyl)-N′-[(4-hydroxy-2-methyl-piperidin-1-yl)-phenylimino-methyl]-2,6-dimethyl-benzamidine] | 169 to 172 °C
6 | Cc1ccccc1N=C(N=C(Nc1ccc(F)cc1)c1c(C)cccc1C)N1CCCCC1C (stereo not drawn) (as salt: hydrochloride) [Example 84, N-(4-fluoro-phenyl)-2,6-dimethyl-N′-[(2-methyl-piperidin-1-yl)-o-tolylimino-methyl]-benzamidine] | 206 to 208 °C
7 | Cc1cccc(C)c1C(=Nc1ccc(F)cc1)NC(=Nc1ccccc1Cl)N1CCCCC1C (stereo not drawn) (as salt: hydrochloride) [Example 85, N-[(2-chloro-phenylimino)-(2-methyl-piperidin-1-yl)-methyl]-N′-(4-fluoro-phenyl)-2,6-dimethyl-benzamidine] | 207 to 209 °C
8 | Cc1cccc(C)c1C(=NC(=Nc1cccnc1)N1CCCCC1C)Nc1ccc(F)cc1 (stereo not drawn) (as salt: hydrochloride) [Example 86, N-(4-fluoro-phenyl)-2,6-dimethyl-N′-[(2-methyl-piperidin-1-yl)-(pyridin-3-ylimino)-methyl]-benzamidine] | 207 to 210 °C
9 | Cc1ccccc1C(=Nc1ccc(F)cc1)NC(=NC1CCCCC1)C1(C)CCCCC1 (as salt: hydrochloride) [Example 96, N-[cyclohexylimino-(1-methyl-cyclohexyl)-methyl]-N′-(4-fluoro-phenyl)-2-methyl-benzamidine] | 127 to 129 °C
10 | Cc1cccc(C)c1C(=Nc1ccc(F)cc1)NC(=NC1CCC1)N1CCCCC1C (stereo not drawn) (as salt: hydrochloride) [Example 102, N-[cyclobutylimino-(2-methyl-piperidin-1-yl)-methyl]-N′-(4-fluoro-phenyl)-2,6-dimethyl-benzamidine] | 136 to 138 °C
11 | Cc1cccc(C)c1C(=Nc1ccc(F)cc1)NC(=NC1CC1)N1CCCCC1C (stereo not drawn) (as salt: hydrochloride) [Example 103, N-[cyclopropylimino-(2-methyl-piperidin-1-yl)-methyl]-N′-(4-fluoro-phenyl)-2,6-dimethyl-benzamidine] | 219 to 220 °C
12 | Cc1ccccc1C(=Nc1ccc(F)cc1)NC(=NC1CC1)C1(C)CCCCC1 (as salt: hydrochloride) [Example 106, N-[cyclopropylimino-(1-methyl-cyclohexyl)-methyl]-N′-(4-fluoro-phenyl)-2-methyl-benzamidine] | 205 to 207 °C
13 | Cc1ccccc1C(=CC(=NC1CC1)N1CCCCO1)Nc1ccc(F)cc1 (as salt: hydrochloride) [Example 107, (3cyclopropylimino-3-[1,2]oxazinan-2-yl-1-o-tolyl-propenyl)-(4-fluoro-phenyl)-amine] | 140 to 142 °C (dec.)
14 | CC1CCCCN1C(=Nc1ccccc1)NC(=Nc1ccccc1)c1ccccc1 (stereo not drawn) (as salt: hydroiodid) [Example 3, N-[(2-Methyl-piperidin-1-yl)-phenylimino-methyl]-N′-phenyl-benzamidine] | 219 to 221 °C (dec.)
15 | c1ccc(N=C(N=C(Nc2ccccc2)c2ccccc2)N2CCCCC2)cc1 (as salt: hydroiodid) [Example 12, N-phenyl-N′-(phenylimino-piperidin-1-yl-methyl)-benzamidine] | 198 to 200 °C (dec.)
16 | c1ccc(N=C(N=C(Nc2ccccc2)c2ccccc2)N2CCSCC2)cc1 (as salt: hydroiodid) [Example 13, N-phenyl-N′-(phenylimino-thiomorpholin-4-yl-methyl)-benzamidine] | 216 to 218 °C (dec.)
17 | c1ccc(N=C(NC(=Nc2ccccc2)N2CCCCCC2)c2ccccc2)cc1 (as salt: hydroiodid) [Example 17, N-(azepan-1-yl-phenylimino-methyl)-N′-phenyl-benzamidine] | 228 to 229 °C

Further lines, results first:

Row | melting point | SMILES
18 | 228 to 229 °C (dec.) | Cc1cccc(C)c1C(=NC(=Nc1ccccc1)N1CCC(=O)CC1)Nc1ccc(F)cc1 (as salt: hydrochloride) [Example 63, N-(4-fluoro-phenyl)-2,6-dimethyl-N′-[(4-oxo-piperidin-1-yl)-phenylimino-methyl]-benzamidine]
19 | 179 to 181 °C | Cc1cccc(C)c1C(=Nc1ccc(F)cc1)NC(=Nc1ccc(N)cc1)N1CCCCC1C (stereo not drawn) (as salt: hydrochloride) [Example 64, N-[(4-amino-phenylimino)-(2-methyl-piperidin-1-yl)-methyl]-N′-(4-fluoro-phenyl)-2,6-dimethyl-benzamidine]
20 | 215 to 217 °C | Cc1cccc(C)c1C(=NC(=Nc1ccccc1)N1CCC(=O)CC1C)Nc1ccc(F)cc1 (stereo not drawn) (as salt: hydrochloride) [Example 65, N-(4-fluoro-phenyl)-2,6-dimethyl-N′-[(2-methyl-4-oxo-piperidin-1-yl)-phenylimino-methyl]-benzamidine]
21 | > 150 °C | Cc1ccccc1C(=NC(=Nc1ccccc1)N1CCCC(O)C1)Nc1ccc(F)cc1 (stereo not drawn) (as salt: hydrochloride) [Example 66, N-(4-fluoro-phenyl)-N′-[(3-hydroxy-piperidin-1-yl)-phenylimino-methyl]-2-methyl-benzamidine]
22 | 214 to 215 °C | COc1ccc(NC(=NC(=Nc2ccccc2)N2CCCCO2)c2c(C)cccc2C)cc1 (as salt: hydrochloride) [Example 67, N-(4-methoxy-phenyl)-2,6-dimethyl-N′-([1,2]oxazinan-2-yl-phenylimino-methyl)-benzamidine]
23 | 210 to 213 °C | Cc1cccc(C)c1C(=Nc1ccc(F)cc1)NC(=Nc1cccc(N)c1)N1CCCCC1C (stereo not drawn) (as salt: hydrochloride) [Example 70, N-[(3-amino-phenylimino)-(2-methyl-piperidin-1-yl)-methyl]-N′-(4-fluoro-phenyl)-2,6-dimethyl-benzamidine]
24 | 163 to 166 °C (dec.) | Cc1cccc(C)c1C(=NC(=Nc1ccccc1)N1CCC(O)CC1C)Nc1ccc(F)cc1 (stereo not drawn) (as salt: hydrochloride) [Example 72, N-(4-fluoro-phenyl)-N′-[(4-hydroxy-2-methyl-piperidin-1-yl)-phenylimino-methyl]-2,6-dimethyl-benzamidine]
25 | 192 to 194 °C | COc1ccc(NC(=CC(=Nc2ccccc2)N2CCCCO2)c2ccccc2C)cc1 (as salt: hydrochloride) [Example 94, (3-phenylimino-3-[1,2]oxazinan-2-yl-1-o-tolyl-propenyl)-(4-methoxy-phenyl)-amine]
26 | 171 to 172 °C | Cc1ccccc1C(=CC(=NC1CCCCC1)N1CCCCO1)Nc1ccc(F)cc1 (as salt: hydrochloride) [Example 95, (3-cyclohexylimino-3-[1,2]oxazinan-2-yl-1-o-tolyl-propenyl)-(4-fluoro-phenyl)-amine]
27 | > 160 °C (dec.) | Cc1ccccc1C(=Nc1ccc(F)cc1)NC(=NC1CCCCC1)N1CCCCC1C (stereo not drawn) (as salt: hydrochloride) [Example 97, N-[cyclohexylimino-(2-methyl-piperidin-1-yl)-methyl]-N′-(4-fluoro-phenyl)-2-methyl-benzamidine]
28 | 168 to 170 °C (dec.) | CCC(C)N=C(NC(=Nc1ccc(F)cc1)c1c(C)cccc1C)N1CCCCC1C (stereo not drawn) (as salt: hydrochloride) [Example 98, N-[sec-butylimino-(2-methyl-piperidin-1-yl)-methyl]-N′-(4-fluoro-phenyl)-2,6-dimethyl-benzamidine]
29 | 208 to 210 °C (dec.) | Cc1cccc(C)c1C(=NC(=NC(C)C)N1CCCCC1C)Nc1ccc(F)cc1 (stereo not drawn) (as salt: hydrochloride) [Example 99, N-(4-fluoro-phenyl)-N′-[isopropylimino-(2-methyl-piperidin-1-yl)-methyl]-2,6-dimethyl-benzamidine]
30 | > 125 °C (dec.) | Cc1ccccc1C(=CC(=NC1CCCCC1)N1CCCCC1C)Nc1ccc(F)cc1 (stereo not drawn) (as salt: hydrochloride) [Example 100, [3-cyclohexylimino-3-(2-methyl-piperidin-1-yl)-1-o-tolyl-propenyl]-(4-fluoro-phenyl)-amine]
31 | 229 to 231 °C (dec.) | Cc1cccc(C)c1C(=Nc1ccc(F)cc1)NC(=NC1CC1)N1CCCCO1 (as salt: hydrochloride) [Example 104, N-(cyclopropylimino-[1,2]oxazinan-2-yl-methyl)-N′-(4-fluoro-phenyl)-2,6-dimethyl-benzamidine]
32 | 241 to 243 °C | COc1ccc(N=C(NC(=Nc2ccccc2)N2CCCCCC2)c2ccccc2)cc1 (as salt: hydroiodid) [Example 18, N-(azepan-1-yl-phenylimino-methyl)-N′-(4-methoxy-phenyl)-benzamidine]
33 | > 228 °C (dec.) | Fc1ccc(N=C(NC(=Nc2ccccc2)N2CCCCCC2)c2ccccc2)cc1 (as salt: hydroiodid) [Example 19, N-(azepan-1-yl-phenylimino-methyl)-N′-(4-fluoro-phenyl)-benzamidine]
